Test system: human iPS cells (Ff-I01 strain)
Assay: Neural tissue / neuroepithelium formation in cell aggregates, bright field observation
Type: cell-based
Conditions: StemFit AK03N; SAG 300 nM for 24, 48, 72 or 96 hr in step 1, SAG 500 nM in step 2, BMP4 1.5 nM; day 19
Experimental: At the time of the start of suspension culturing (day 0 after the start of suspension culturing, […]), Y27632 ([…]) were added to the above serum-free medium (FIG. 22). By day 2 after the start of suspension culturing, a cell aggregate was formed (step 2 completed, step 3 start) under any conditions. On day 3 or later from the start of suspension culturing, BMP4 was added under 3 conditions including the following conditions 1-3. • Condition 1: (+BMP4 addition once) On day 3 of suspension culturing, a medium (50 μl) free of Y27632 and SAG, and containing human recombinant BMP4 (manufactured by R&D) was added such that the final concentration of exogenous human recombinant BMP4 was 1.5 nM (55 ng/ml). On day 6 or later from the start of suspension culturing, a half amount of the medium was changed to a serum-free medium free of Y27632, SAG and human recombinant BMP4. • Condition 2: (+BMP4 addition twice) On day 3 of suspension culturing, a medium (50 μl) free of Y27632, SAG and containing human recombinant BMP4 (manufactured by R&D) was added such that the final concentration of exogenous human recombinant BMP4 was 1.5 nM (55 ng/ml). On day 6 from the start of suspension culturing, 50 μl of the medium was discarded, and 50 μl of a medium free of Y27632 and SAG and containing human recombinant BMP4 (manufactured by R&D) was added to maintain the final concentration of exogenous human recombinant BMP4 at 1.5 nM (55 ng/ml). On day 9 or later from the start of suspension culturing, a half amount of the medium was changed with a serum-free medium free of Y27632, SAG, and human recombinant BMP4. • Condition 3: (+BMP4 addition three times) On day 3 of suspension culturing, a medium (50 μl) free of Y27632, SAG and containing human recombinant BMP4 (manufactured by R&D) was added such that the final concentration of exogenous human recombinant BMP4 was 1.5 nM (55 ng/ml). On days 6 and 9 from the start of suspension culturing, 50 μl of the medium was discarded, and 50 μl of a medium free of Y27632 and SAG and containing human recombinant BMP4 (manufactured by R&D) was added to maintain the final concentration of exogenous human recombinant BMP4 at 1.5 nM (55 ng/ml). On day 12 or later from the start of suspension culturing, a half amount of the medium was changed with a serum-free medium free of Y27632, SAG and human recombinant BMP4. […]
On day 3 after the start of suspension culturing, a medium (50 μl) free of Y27632 and SAG, and containing human recombinant BMP4 (manufactured by R&D) was added such that the final concentration of exogenous human recombinant BMP4 was 1.5 nM (55 ng/ml) or 5 nM (183 ng/ml). […]

CNC1CCC(N(Cc2cccc(-c3ccncc3)c2)C(=O)c2sc3ccccc3c2Cl)CC1 (stereo not shown) [SAG]
cell aggregate growth and neuroepithelium formation: neuroepithelium can be formed efficiently

— patent publication US12492373B2, “Production method for nerve tissue” (Racthera Co., Ltd., priority 2014, dated 2025)
